Patent US4318916A, “Antibiotic PS-5 and derivatives having β-lactamase inhibitory activity and production thereof” (Sanraku-Ocean Co., Ltd., priority 1977, dated 1982)
Values after ≈ are worked out from the molar mass of the structure shown. Read-outs that look alike come from different tables or passages of the source.

How the values were obtained:
[1] = tested on: Proteus vulgaris P-5; assay: Filter paper strip synergism test; assay type: cell-based; conditions: Proteus vulgaris P-5 (beta-lactamase producer); crossed filter paper strips, 18 hours at 35° C.
Protocol: On an assay plate of nutrient agar seeded by a beta-lactam-resistant strain of Proteus vulgaris P-5 (beta-lactamase producer), two filter paper strips containing penicillin G or cephaloridine and two strips containing antibiotic PS-5 were applied to form a square where two strips of the […] antibiotic were contacted at one corner. The antimicrobial activity was read after incubation for 18 hours at 35° C. When suitable concentrations of penicillin G or cephaloridine and antibiotic PS-5 were chosen, the inhibition area was observed only at the corners where both antibiotic PS-5 and penicillin G or cephaloridine were present, but not at the corners where antibiotic PS-5, penicillin G or cephaloridine was solely present. […] That is, when two kinds of compounds were combined at concentrations that were low enough not to give an inhibition zone with a component alone, the large inhibition thus appearing with the combination was due to synergism.

[2] = tested on: male ddy mice; assay type: in vivo; conditions: 500 mg/kg intraperitoneally
Protocol: An aqueous solution of the antibiotic PS-5 sodium salt was intraperitoneally administered to male ddy mice (Shizuoka) at the dose of 500 mg/kg.

[3] = Solubility of trityl ester of antibiotic PS-5; assay type: physicochemical
Protocol: The solubility of the tritylation product of the antibiotic PS-5 was determined by dissolving under […] 5 mg each of the tritylation product of the antibiotic PS-5 in 0.1 ml each of the test solvents at 20° C.

[4] = tested on: Streptococcus pyogenes NY-5; assay: MIC by broth dilution (Table 13); assay type: cell-based; conditions: NY5, 20 h
Protocol: (§1) The MIC (minimum inhibitory concentration) values of the compound were determined on various pathogenic microorganisms including several resistant strains, utilizing the broth dilution method in BRAIN HEART INFUSION BROTH `Eiken` (EIKEN CHEMICAL CO., LTD.).
(§2) The results were read after incubation at 35° C. for 20 hours. The minimum inhibitory concentration (MIC) values means the lowest concentration unit of the tritylation product of the antibiotic PS-5 was no growth of the corresponding microorganism was observed under the above described conditions. As the control antibiotics,the solutions of ampicillin and cephaloridine were prepared in BRAIN HEART INFUSION BROTH `Eiken` (pH 7.0) at a concentration of 100 μg/ml and treated same as the test compound of the present invention.

[5] = tested on: Alcaligenes faecalis B-326; assay: MIC by broth dilution (Table 13); assay type: cell-based; conditions: B326, 20 h
Protocol: as §1, §2

[6] = tested on: Proteus vulgaris P-5; assay: MIC by broth dilution (Table 13); assay type: cell-based; conditions: P5, 20 h
Protocol: as §1, §2

[7] = tested on: Citrobacter freundii E-9; assay: MIC by broth dilution (Table 13); assay type: cell-based; conditions: E9, 20 h
Protocol: as §1, §2

[8] = tested on: Diplococcus pneumoniae Type III; assay: MIC by broth dilution (Table 13); assay type: cell-based; conditions: Streptococcus pneumoniae, 20 h
Protocol: as §1, §2

[9] = tested on: Enterobacter sp. E-8; assay: MIC by broth dilution (Table 13); assay type: cell-based; conditions: SP.E8, 20 h
Protocol: as §1, §2

[10] = tested on: Escherichia coli K12; assay: MIC by broth dilution (Table 13); assay type: cell-based; conditions: 20 h
Protocol: as §1, §2

[11] = tested on: Staphylococcus aureus Smith; assay: MIC by broth dilution (Table 13); assay type: cell-based; conditions: 20 h
Protocol: as §1, §2

[12] = tested on: Pseudomonas aeruginosa P-1; assay: MIC by broth dilution (Table 13); assay type: cell-based; conditions: P1, 20 h
Protocol: as §1, §2

[13] = tested on: Proteus rettgeri P-7; assay: MIC by broth dilution (Table 13); assay type: cell-based; conditions: Providencia rettgeri, P7, 20 h
Protocol: as §1, §2

[14] = tested on: Sarcina lutea S-19; assay: MIC by broth dilution (Table 13); assay type: cell-based; conditions: Micrococcus luteus, S19, 20 h
Protocol: as §1, §2

[15] = tested on: Staphylococcus aureus FDA 209p; assay: MIC by broth dilution (Table 13); assay type: cell-based; conditions: FDA209P, 20 h
Protocol: as §1, §2

[16] = tested on: Proteus mirabilis P-6; assay: MIC by broth dilution (Table 13); assay type: cell-based; conditions: P6, 20 h
Protocol: as §1, §2

[17] = tested on: Klebsiella pneumoniae K-2; assay: MIC by broth dilution (Table 13); assay type: cell-based; conditions: K2, 20 h
Protocol: as §1, §2

[18] = target: Beta-lactamase from Citrobacter freundii E-9 (Citrobacter freundii, UniProt P05193); assay: Beta-lactamase inhibition, hydrolysis of cephaloridine (I50 CER); assay type: biochemical; conditions: Citrobacter freundii E-9 beta-lactamase; cephaloridine substrate; 15 minutes preincubation at 30° C.
Protocol: The I50^CER value of hydrolysis of cephaloridine by beta-lactamasefor 10 minutes (from one minute to ten minutes after the incubation is started). The rate of hydrolysis of cephaloridine is measured by the decrease of optical density at […]. For routine inhibition assays, beta-lactamase of Citrobacter freundii E-9 and Proteus vulgaris P-5 were employed after purification by affinity chromatography with cephalexin-Sepharose 4B.
Buffer: 0.1 M phosphate buffer (Na-K phosphate) (pH 6.8)
Substrate: 0.05 micromole/ml in phosphate buffer
Beta-lactamase: The enzyme was diluted enough to give a fall of ca. 0.1 optical density unit per 10 minutes at 255 mμ in the absence of an inhibitor. (Apparatus: Hitachi Spectrophotometer UV-VIS 139, Hitachi, Ltd.).
(This can hold one control cuvette and three sample cuvettes. Four 1 cm quarz cuvettes (3 ml in volume) were employed. The temperature was maintained at 30° C. during the reaction). […]
After pre-incubation, the substrate solution (pre-warmed at 30° C.; 3.0 ml) was added and quickly mixed to start the reaction. […] The value of I50^CER (μg/ml) was determined by diluting the inhibitor untill the dilution gave 50% of the rate of hydrolysis of cephaloridine recorded in the no-inhibitor control for 10 minutes (from 1 minute to 11 minutes after the substrate was added).

[19] = 5 mg in 0.1 ml solvent at 20° C.

Chain of Beta-lactamase from Citrobacter freundii E-9 (P05193 21-381): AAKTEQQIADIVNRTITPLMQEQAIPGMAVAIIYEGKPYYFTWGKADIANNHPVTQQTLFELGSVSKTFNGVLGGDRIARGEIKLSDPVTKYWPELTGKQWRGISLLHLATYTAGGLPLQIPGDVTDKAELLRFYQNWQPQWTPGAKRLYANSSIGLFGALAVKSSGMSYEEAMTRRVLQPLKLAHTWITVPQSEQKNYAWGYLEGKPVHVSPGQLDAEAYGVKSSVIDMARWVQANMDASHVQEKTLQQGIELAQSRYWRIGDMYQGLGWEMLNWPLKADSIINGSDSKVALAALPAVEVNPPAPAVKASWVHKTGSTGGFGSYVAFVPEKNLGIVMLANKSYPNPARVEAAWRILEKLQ

CCC1C(=O)N2C(C(=O)O)=C(SCCNC(C)=O)CC12 (single isomer, unassigned) [Antibiotic PS-5]
Synergism with penicillin G or cephaloridine [1]: synergism between the antibiotic PS-5 and penicillin G or cephaloridine | Deaths after intraperitoneal administration [2]: does not provoke any dead

CCC1C(=O)N2C(C(=O)OC(c3ccccc3)(c3ccccc3)c3ccccc3)=C(SCCNC(C)=O)CC12 (single isomer, unassigned) [Trityl PS-5]
Solubility in benzene, ethyl acetate, chloroform, methanol, ethanol, acetone, DMF and DMSO [3, 19]: Highly soluble | Solubility in water, n-hexane and petroleum ether [3, 19]: Substantially insoluble | Solubility in benzene, ethyl acetate, chloroform, acetone and dimethyl sulfoxide ([3]; general description): soluble | Solubility in water, hexane and petroleum ether ([3]; general description): substantially insoluble | Deaths after intraperitoneal administration ([2]; listed as trityl ester of the antibiotic PS-5, 500 mg/kg): did not provoke any dead | Deaths after intraperitoneal administration ([2]; listed as trityl ester, 500 mg/kg): does not provoke any dead | MIC ([4]; Streptococcus pyogenes NY-5, read-out: MIC): 0.17 µg/mL (≈ 0.314 µM) | MIC ([5]; Alcaligenes faecalis B-326, read-out: MIC): 1.25 µg/mL (≈ 2.31 µM) | MIC ([6]; Proteus vulgaris P-5, read-out: MIC): 21.5 µg/mL (≈ 39.8 µM) | MIC ([7]; Citrobacter freundii E-9, read-out: MIC): 5 µg/mL (≈ 9.25 µM) | MIC ([8]; Diplococcus pneumoniae Type III, read-out: MIC): 0.08 µg/mL (≈ 0.148 µM) | MIC ([9]; Enterobacter sp. E-8, read-out: MIC): 10 µg/mL (≈ 18.5 µM) | MIC [10]: 5.37 µg/mL (≈ 9.93 µM) | MIC ([11]; Staphylococcus aureus Smith, read-out: MIC): 0.27 µg/mL (≈ 0.499 µM) | MIC ([12]; Pseudomonas aeruginosa P-1, read-out: MIC): > 43 µg/mL | MIC ([13]; Proteus rettgeri P-7, read-out: MIC): 10 µg/mL (≈ 18.5 µM) | MIC ([14]; Sarcina lutea S-19, read-out: MIC): 0.27 µg/mL (≈ 0.499 µM) | MIC ([15]; Staphylococcus aureus FDA 209p, read-out: MIC): 0.17 µg/mL (≈ 0.314 µM) | MIC ([16]; Proteus mirabilis P-6, read-out: MIC): 21.5 µg/mL (≈ 39.8 µM) | MIC ([17]; Klebsiella pneumoniae K-2, read-out: MIC): 10.7 µg/mL (≈ 19.8 µM) | IC50 [18]: 1480 nM

O=C(Cc1cccs1)N[C@@H]1C(=O)N2C(C(=O)[O-])=C(C[n+]3ccccc3)CS[C@H]12 [Cephaloridine, cephaloridine]
MIC ([4]; Streptococcus pyogenes): 0.01 µg/mL (≈ 0.0241 µM) | MIC ([5]; Alcaligenes faecalis): 6.25 µg/mL (≈ 15 µM) | MIC ([6]; Proteus vulgaris): > 20 µg/mL | MIC ([7]; Citrobacter freundii): > 100 µg/mL | MIC [8]: 0.01 µg/mL (≈ 0.0241 µM) | MIC ([9]; Enterobacter): > 100 µg/mL | MIC [10]: 2.5 µg/mL (≈ 6.02 µM) | MIC ([11]; Staphylococcus aureus): 0.04 µg/mL (≈ 0.0963 µM) | MIC ([12]; Pseudomonas aeruginosa): > 20 µg/mL | MIC [13]: 50 µg/mL (≈ 120 µM) | MIC [14]: 0.05 µg/mL (≈ 0.12 µM) | MIC ([15]; Staphylococcus aureus): 0.04 µg/mL (≈ 0.0963 µM) | MIC ([16]; Proteus mirabilis): 10 µg/mL (≈ 24.1 µM) | MIC ([17]; Klebsiella pneumoniae): 10 µg/mL (≈ 24.1 µM)
